Among the data in PubChem BioAssay AID2305 (GlaxoSmithKline (GSK), 2010) are IC50 values, retold here.

The experiment concerns P. falciparum 3D7 growth, pLDH absorbance. The experiment in a line: P. falciparum 3D7 growth inhibition, dose response, strain 3D7 (AID 2305).

pIC50: −log10 of the molar value.

As for `CC(C)(Oc1c(C2CCN(CCCCNC(=O)c3ccc(-c4ccc(C#N)cc4)cc3)CC2)ccc2c1CCCC2)C(N)=O`, the pIC50 is 6.15.

In turn, `CNCCNCc1ccc(-c2ccc(-c3nc4c(C)cccc4[nH]3)s2)cc1` showed a pIC50 of 6.14.

Regarding `COc1cc(NC(=O)N2CCOC(CCN3CCC4(CCc5ccccc54)CC3)(c3ccc(Cl)c(Cl)c3)C2)cc(OC)c1OC` (stereo unspecified), the pIC50 is 6.80.

With `CCCCCCC(C)c1cc(O)c2c(c1)OC(C)(C)c1ccncc1-2` (stereo unspecified), the pIC50 is 6.10.

For the compound `O=C(Nc1ccc(Cl)cc1)c1cccc(S(=O)(=O)NC2CCN(CC3CCCCC3)C2)c1` (stereo unspecified), the pIC50 was 6.04.

The compound `CN1CCC(NCc2cccc(-c3cccc(S(=O)(=O)NCc4ccccc4)c3)c2)CC1` gave a pIC50 of 6.12.

For the compound `Cc1cccc(NC(=O)N(Cc2cc3cc(C)cc(C)c3[nH]c2=O)C2CC2)c1`, the negative logarithm of the IC50 (pIC50) is 6.47.

In turn, `Cc1ccc(-c2cncc(-c3cc(NC4CCN(Cc5ccccc5)CC4)nc(-c4ccccc4)n3)c2)cc1` gave a pIC50 of 6.14.

`c1ccc(C23N=C(Nc4nc5ccccc5[nH]4)NC2(c2ccccc2)NC(Nc2nc4ccccc4[nH]2)=N3)cc1` (stereo unspecified) showed a pIC50 of 6.55.

Compound `Cc1cccc2[nH]c(-c3cccc(-c4cccc(NC(=O)c5cnn6cccnc56)c4)c3)nc12` had a pIC50 of 6.17.

With `CCOC(C(=O)OCCN(C(C)C)C(C)C)(c1ccccc1)c1ccccc1`, the pIC50 was 6.06.

For `CC(C)C[C@H](Nc1ccnc(NCC2CCCCC2)n1)C(=O)NCCOc1ccccc1`, the pIC50 was 5.99. This pIC50 and that of the compound before are within 0.2 log units of each other.

`O=[N+]([O-])c1cc(C=NNc2nc3nonc3nc2Nc2ccc(F)cc2)c(Cl)cc1Cl`: the pIC50 is 6.12. This pIC50 and that of the compound before are within 0.2 log units of each other.

With `CCn1cc2c3c(cc(C(=O)N[C@@H](Cc4ccccc4)[C@H](O)CNC4CCOCC4)cc31)N(C)S(=O)(=O)CC2`, the pIC50 is 6.68. This pIC50 is 0.56 log units higher than that of the compound before.

The compound `CCn1ncc(Cl)c1CN(C)S(=O)(=O)c1ccc(Br)cc1` had a pIC50 of 5.99.

Turning to `COc1ccc(NC(=O)c2ccc(-c3cc(NC(=O)c4ccnc(N5CCCC5)c4)ccc3C)s2)cc1N1CCN(C)CC1`, the pIC50 was 6.60.

With `Cc1ccc(NC(=O)c2ccc(CN3CCCN(CC4CCCCC4)CC3)cc2)cc1C`, the pIC50 was 5.99.

Turning to `Cn1nc(-c2ccc(NC(=O)Nc3cc(C(F)(F)F)ccc3F)c(F)c2)c2cnc(NCCCn3ccnc3)nc21`, the pIC50 is 6.13.

Turning to `CNC(=O)c1ccccc1Nc1nc(Nc2ccc(CCN3CCN(C)CC3)cc2)ncc1Cl`, the pIC50 was 6.19. This pIC50 and that of the compound before are within 0.2 log units of each other.

The compound `O=C(Nc1cccc(-c2cccc(-c3nc4ccc(F)cc4[nH]3)c2)c1)Nc1ccc(F)c(F)c1F` had a pIC50 of 7.05.

`Nc1nc(N)c2c(ccc3nn(Cc4cccnc4)cc32)n1` gave a negative logarithm of the IC50 (pIC50) of 6.44.

The compound `Cc1cccc2[nH]c(-c3cccc(-c4ccc(NC(=O)N[C@@H]5C[C@H]5c5ccccc5)cc4)c3)nc12` gave a pIC50 of 6.14. Against the preceding compound, the pIC50 is 0.30 log units lower.

`CCNC(=O)Nc1ccc(-c2cnc(N)c(-c3nc4ccc(OC)cc4[nH]3)c2)cc1`: the pIC50 was 6.30.

With `Cc1ccccc1C1CCN(C2CCC(NC(=O)/C=C/c3ccc(C(F)(F)F)cc3F)CC2)CC1` (stereo unspecified), the pIC50 is 6.05. Compared with the last compound, the pIC50 is 0.25 log units lower.

`CCCCCCCCc1c(C)[nH]c(C)c(C#N)c1=O` showed a pIC50 of 6.40.

`O=C1CCCN1CCCNCc1cccc(-c2ccc(-c3nc4ccc(C(F)(F)F)cc4[nH]3)s2)c1` gave a pIC50 of 6.35.

Take `COC(=O)c1cccc(CNCc2ccc(-c3ccc(-c4nc5ccc(F)cc5[nH]4)cc3)cc2)c1`: the pIC50 was 6.62.

`CCn1ccc2c(N3CCCS3(=O)=O)cc(C(=O)N[C@@H](Cc3ccccc3)[C@H](O)CNC3CCCCC3)cc21` gave a negative logarithm of the IC50 (pIC50) of 6.85. Against the preceding compound, the pIC50 is 0.23 log units higher.

The compound `Nc1c2c(nc3ccc(C(=O)Nc4ccccc4)cc13)CCCC2` gave a pIC50 of 6.15.

Compound `CCN(CC)CCNc1ccnc2[nH]c3ccc(I)cc3c12` gave a pIC50 of 6.64.

`CN(C)CCCN(C)C(=O)c1cc2cc(-c3ccccc3)ccc2n1S(=O)(=O)c1ccccc1` gave a pIC50 of 6.34.

`O=C(/C=C/c1ccc(Cl)c(Cl)c1)NC1CCC(CN2CCC(c3nc4ccccc4n3CCCO)CC2)CC1` (stereo unspecified): the pIC50 is 6.24.

Take `O=C(Nc1cccc(-c2cccc(-c3nc4ccccc4[nH]3)c2)c1)c1cccnc1`: the pIC50 was 6.19.

With `CN(C)C(=NCCCCCCN=C(NC(N)=NCc1ccc(Cl)c(Cl)c1)N(C)C)NC(N)=NCc1ccc(Cl)c(Cl)c1`, the pIC50 is 6.52.

As to `COc1ccc(CNc2nccc3ccc(-c4ccc(N)nc4)cc23)cc1`, the pIC50 was 6.01.

On to `O=C1OC(c2ccccc2)(c2ccccc2)CN1C1CCN(Cc2ccc(O)c(Cl)c2)C1` (stereo unspecified), for which the pIC50 was 6.02.

Turning to `CC(=O)N1c2ccccc2C(C)=CC1(C)C`, the negative-log IC50 (pIC50) is 6.03.

For the compound `Nc1ccc(-c2nc3ccc(-c4ccc5nc(-c6ccc(N)cc6)[nH]c5c4)cc3[nH]2)cc1`, the pIC50 is 6.89.

For `O=C(Nc1ccc(Cl)cc1)NC1CCN(CCCCCNC(=O)[C@@H]2C[C@H]2c2ccc(Cl)c(Cl)c2)CC1`, the pIC50 was 6.24.

Compound `O=C(NCc1ccccc1F)c1ccc(N2CCC(NCc3cccc(-n4cccn4)c3)CC2)cc1` gave a pIC50 of 5.76.

As to `NC(N)=NN=Cc1cc([N+](=O)[O-])ccc1Sc1ccccc1CO`, the pIC50 is 5.84.

Compound `COc1ccccc1NC(=O)Nc1cccc(-c2ccc(-c3nc4ccc(C(F)(F)F)cc4[nH]3)cc2)c1` gave a pIC50 of 6.51.

In turn, `CCOC(=O)[C@H](Cc1cccc2ccccc12)NC(=O)[C@H](CCC(=O)OC(C)(C)C)NC(=O)c1ccc(N(C)Cc2cnc3nc(N)nc(N)c3n2)cc1` gave a pIC50 of 6.18.

`CCN(CCCN1CCCCC1)c1cc(C)nc(Nc2cccc(C(F)(F)F)c2)n1` gave a pIC50 of 6.54.

`Cc1cccc2[nH]c(-c3cccc(-c4cccc(NC(=O)c5cncn5C)c4)c3)nc12`: the pIC50 is 6.77. This pIC50 lies 0.23 log units higher than the previous one.

The compound `COc1ccc(-c2cccc(CNCc3ccc(F)cc3)c2)cc1S(=O)(=O)NCCN1CCCC1` gave a pIC50 of 5.73. Compared with the last compound, the pIC50 is 1.04 log units lower.

Take `Nc1ncnc2nc(-c3ccc(F)cc3)cc(-c3ccc(NC(=O)c4ccccc4)cc3)c12`: the pIC50 is 6.19.

Compound `Oc1ccc2[nH]c(-c3cccc(F)c3)nc2c1CN1CCC(N2CCCC2)CC1` had a pIC50 of 6.74.

In turn, `O=C1COc2cc(Cl)c(CNC3CCN(CCc4ccnc5c(F)cc(F)cc45)CC3)nc2N1` gave a pIC50 of 6.10.

`COc1ccc(Nc2nc(NCc3ccco3)c3ccccc3n2)cc1` gave a negative-log IC50 (pIC50) of 6.13.

Take `O=C(Nc1ccccc1)N(Cc1ccccc1-c1cccc(CNCc2ccc3c(c2)OCO3)c1)C1CCN(Cc2ccccc2)CC1`: the negative-log IC50 (pIC50) was 6.96.

The compound `COc1cccc(-c2cc3nc4c(c(NCCCn5ccnc5)n3n2)CCCC4)c1` gave a pIC50 of 6.17. This pIC50 lies 0.79 log units lower than the previous one.

In the case of `CCN(CC)CCCCCNc1c2ccc(Cl)cc2nc2ccc(OC)cc12`, the negative logarithm of the IC50 (pIC50) was 7.30. Compared with the last compound, the pIC50 is 1.13 log units higher.

For `Cc1noc(-c2ccc3c(c2)CCN(CCC2CCC(NC(=O)/C=C/c4ccc(F)cc4)CC2)CC3)n1` (stereo unspecified), the pIC50 is 5.99.

`CN1CCN(CCCCNc2c3ccccc3nc3ccccc23)CC1`: the pIC50 is 6.15. This pIC50 and that of the compound before are within 0.2 log units of each other.

`Cc1cccc(Nc2nc3nonc3nc2Nc2cccc(Cl)c2Cl)c1C` had a negative logarithm of the IC50 (pIC50) of 5.99.

`Cc1cc(NN=Cc2ccccc2Cl)c2cc(F)ccc2n1` gave a pIC50 of 6.12.

Take `FC(F)(F)c1cccc(Nc2nc(-n3ccnc3)nc(-n3ccnc3)n2)c1`: the pIC50 was 6.14. This pIC50 and that of the compound before are within 0.2 log units of each other.

As to `NCC1CCCN1Cc1ccc(-c2cccc(-c3nc4ccc(C(F)(F)F)cc4[nH]3)c2)cc1` (stereo unspecified), the pIC50 was 6.08.

Take `Oc1ccc2nc(NCCCc3ccccc3)nc(NCCCc3ccccc3)c2c1`: the negative logarithm of the IC50 (pIC50) was 6.40.

`Cn1cncc1C(=O)Nc1cccc(-c2ccc(-c3nc4ccccc4[nH]3)s2)c1` had a pIC50 of 6.10.
